As a reminder, the IC50 is the midpoint of a concentration-inhibition curve. A lower IC50 goes with inhibition by little substance.

The structures appear in SMILES notation.

For this experiment, the target named is T1, hMAGL (Homo sapiens, UniProt Q99685).
T1 sequence (Q99685 1-303): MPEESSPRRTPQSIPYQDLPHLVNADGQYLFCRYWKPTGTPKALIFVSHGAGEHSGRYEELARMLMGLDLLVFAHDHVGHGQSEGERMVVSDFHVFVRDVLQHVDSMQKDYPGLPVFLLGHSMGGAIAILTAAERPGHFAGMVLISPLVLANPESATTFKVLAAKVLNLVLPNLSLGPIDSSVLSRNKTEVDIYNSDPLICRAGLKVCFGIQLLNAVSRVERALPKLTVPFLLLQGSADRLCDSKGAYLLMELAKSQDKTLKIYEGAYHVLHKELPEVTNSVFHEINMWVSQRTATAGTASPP
Description: 2-AG assay: MAGL inhibition, hydrolysis of 2-arachidonoylglycerol to arachidonic acid followed by mass spectrometry. In kind it is biochemical. In outline:
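Read-out is LC-MS/MS of arachidonic acid released from 2-arachidonoylglycerol (8 μM final), normalised to d8-arachidonic acid internal standard after acetonitrile quench. Enzyme […] and compound were pre-mixed 15 min, then reacted 30 min, both at RT, in Tris/EDTA buffer with 0.01% Tween-20 and 2.5% DMSO.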
In the case of `O=C(N1CC2(CC(Cc3cc(C(F)F)n[nH]3)C2)C1)N1CC2(CC(c3cc(C4CC4)n[nH]3)C2)C1` [Example 294, [6-(3-cyclopropyl-1H-pyrazol-5-yl)-2-azaspiro[3.3]heptan-2-yl]-[6-[[3-(difluoromethyl)-1H-pyrazol-5-yl]methyl]-2-azaspiro[3.3]heptan-2-yl]methanone], inhibition was half-maximal at 0.33 nM (IC50).

Consider `O=C(N1CC2(CC(Cc3cc(C(F)F)n[nH]3)C2)C1)N1CC2(CC(n3cnc(C(F)(F)F)n3)C2)C1` [Example 295, [6-[[3-(difluoromethyl)-1H-pyrazol-5-yl]methyl]-2-azaspiro[3.3]heptan-2-yl]-[6-[3-(trifluoromethyl)-1,2,4-triazol-1-yl]-2-azaspiro[3.3]heptan-2-yl]methanone], for which 1.11 nM corresponded to half-maximal inhibition (IC50). With `O=C(N1CC2(CC(Cc3cc(C(F)F)n[nH]3)C2)C1)N1CC2(CC(n3cnc(C4CC4)n3)C2)C1` [Example 296, [6-(3-cyclopropyl-1,2,4-triazol-1-yl)-2-azaspiro[3.3]heptan-2-yl]-[6-[[3-(difluoromethyl)-1H-pyrazol-5-yl]methyl]-2-azaspiro[3.3]heptan-2-yl]methanone], the IC50 amounted to 0.17 nM. Under `O=C(N1CC2(CC(Cc3cc(C(F)(F)F)n[nH]3)C2)C1)N1CC2(CC(c3cc(C4CC4)n[nH]3)C2)C1` [Example 297, [6-(3-cyclopropyl-1H-pyrazol-5-yl)-2-azaspiro[3.3]heptan-2-yl]-[6-[[3-(trifluoromethyl)-1H-pyrazol-5-yl]methyl]-2-azaspiro[3.3]heptan-2-yl]methanone] stands 0.12 nM. Under `O=C(N1CC2(CC(Cc3cc(C(F)(F)F)n[nH]3)C2)C1)N1CC2(CC(n3cnc(C(F)(F)F)n3)C2)C1` [Example 298, [6-[[3-(trifluoromethyl)-1H-pyrazol-5-yl]methyl]-2-azaspiro[3.3]heptan-2-yl]-[6-[3-(trifluoromethyl)-1,2,4-triazol-1-yl]-2-azaspiro[3.3]heptan-2-yl]methanone] stands 0.23 nM. In the case of `O=C(N1CC2(CC(Cc3cc(C(F)(F)F)n[nH]3)C2)C1)N1CC2(CC(n3cnc(C4(O)CC4)n3)C2)C1` [Example 299, [6-[3-(1-hydroxycyclopropyl)-1,2,4-triazol-1-yl]-2-azaspiro[3.3]heptan-2-yl]-[6-[[3-(trifluoromethyl)-1H-pyrazol-5-yl]methyl]-2-azaspiro[3.3]heptan-2-yl]methanone], the IC50 was determined as 1.83 nM. Next, `O=C(N1CC2(CC(Cc3cc(C(F)(F)F)n[nH]3)C2)C1)N1CC2(CC(n3cnc(C4CC4)n3)C2)C1` [Example 300, [6-(3-cyclopropyl-1,2,4-triazol-1-yl)-2-azaspiro[3.3]heptan-2-yl]-[6-[[3-(trifluoromethyl)-1H-pyrazol-5-yl]methyl]-2-azaspiro[3.3]heptan-2-yl]methanone]: 0.12 nM; `O=C(N1CC2(CC(Cc3nc(C4CC4)n[nH]3)C2)C1)N1CC2(CC(c3cc(C4CC4)n[nH]3)C2)C1` [Example 301, [6-(3-cyclopropyl-1H-pyrazol-5-yl)-2-azaspiro[3.3]heptan-2-yl]-[6-[(3-cyclopropyl-1H-1,2,4-triazol-5-yl)methyl]-2-azaspiro[3.3]heptan-2-yl]methanone]: 1.1 nM. Next, `Cc1nc(C)c(CN2CC3(C2)CN(C(=O)N2CC4(CC(n5cnc(C6CC6)n5)C4)C2)C3)s1` [Example 302, [6-(3-cyclopropyl-1,2,4-triazol-1-yl)-2-azaspiro[3.3]heptan-2-yl]-[6-[(2,4-dimethylthiazol-5-yl)methyl]-2,6-diazaspiro[3.3]heptan-2-yl]methanone]: 9.77 nM. Under `O=C(N1CC2(CC(Cc3n[nH]c(C4CC4)n3)C2)C1)N1CC2(CC(n3cnc(C(F)(F)F)n3)C2)C1` [Example 303, [6-[(5-cyclopropyl-1H-1,2,4-triazol-3-yl)methyl]-2-azaspiro[3.3]heptan-2-yl]-[6-[3-(trifluoromethyl)-1,2,4-triazol-1-yl]-2-azaspiro[3.3]heptan-2-yl]methanone] stands 9.41 nM; under `O=C(N1CC2(CC(Cc3n[nH]c(C4CC4)n3)C2)C1)N1CC2(CC(n3cnc(C4CC4)n3)C2)C1` [Example 304, [6-(3-cyclopropyl-1,2,4-triazol-1-yl)-2-azaspiro[3.3]heptan-2-yl]-[6-[(5-cyclopropyl-1H-1,2,4-triazol-3-yl)methyl]-2-azaspiro[3.3]heptan-2-yl]methanone], 1.82 nM.

In turn, `Cn1cnc(CN2CC3(C2)CN(C(=O)N2CC4(CC(n5cnc(C6CC6)n5)C4)C2)C3)c1` [Example 305, [6-(3-cyclopropyl-1,2,4-triazol-1-yl)-2-azaspiro[3.3]heptan-2-yl]-[6-[(1-methylimidazol-4-yl)methyl]-2,6-diazaspiro[3.3]heptan-2-yl]methanone] had an IC50 of 2860 nM. Under `CCc1nc(C)c(CN2CC3(C2)CN(C(=O)N2CC4(CC(n5cnc(C6CC6)n5)C4)C2)C3)[nH]1` [Example 306, [6-(3-cyclopropyl-1,2,4-triazol-1-yl)-2-azaspiro[3.3]heptan-2-yl]-[6-[(2-ethyl-4-methyl-1H-imidazol-5-yl)methyl]-2,6-diazaspiro[3.3]heptan-2-yl]methanone] stands 907 nM; under `Cc1nc(C)c(CN2CC3(C2)CN(C(=O)N2CC4(CC(n5cnc(C6CC6)n5)C4)C2)C3)o1` [Example 307, [6-(3-cyclopropyl-1,2,4-triazol-1-yl)-2-azaspiro[3.3]heptan-2-yl]-[6-[(2,4-dimethyloxazol-5-yl)methyl]-2,6-diazaspiro[3.3]heptan-2-yl]methanone], 102 nM; under `Cn1ccnc1CN1CC2(C1)CN(C(=O)N1CC3(CC(n4cnc(C5CC5)n4)C3)C1)C2` [Example 308, [6-(3-cyclopropyl-1,2,4-triazol-1-yl)-2-azaspiro[3.3]heptan-2-yl]-[6-[(1-methylimidazol-2-yl)methyl]-2,6-diazaspiro[3.3]heptan-2-yl]methanone], 110 nM. `Cc1c(CN2CC3(C2)CN(C(=O)N2CC4(CC(n5cnc(C6CC6)n5)C4)C2)C3)cnn1C` [Example 309, [6-(3-cyclopropyl-1,2,4-triazol-1-yl)-2-azaspiro[3.3]heptan-2-yl]-[6-[(1,5-dimethylpyrazol-4-yl)methyl]-2,6-diazaspiro[3.3]heptan-2-yl]methanone] had an IC50 of 183 nM. Under `O=C(N1CC2(CC(n3cnc(C(F)F)n3)C2)C1)N1CC2(CN(Cc3cn[nH]c3C(F)(F)F)C2)C1` [Example 310, [6-[3-(difluoromethyl)-1,2,4-triazol-1-yl]-2-azaspiro[3.3]heptan-2-yl]-[6-[[5-(trifluoromethyl)-1H-pyrazol-4-yl]methyl]-2,6-diazaspiro[3.3]heptan-2-yl]methanone] stands 344 nM; under `O=C(N1CC2(CC(n3cnc(C(F)F)n3)C2)C1)N1CC2(CN(Cc3cc(C(F)(F)F)n[nH]3)C2)C1` [Example 311, [6-[3-(difluoromethyl)-1,2,4-triazol-1-yl]-2-azaspiro[3.3]heptan-2-yl]-[6-[[3-(trifluoromethyl)-1H-pyrazol-5-yl]methyl]-2,6-diazaspiro[3.3]heptan-2-yl]methanone], 190 nM; under `O=C(N1CC2(CC(n3cnc(C(F)(F)F)n3)C2)C1)N1CC2(CN(Cc3ccn(CCC(F)(F)F)n3)C2)C1` [Example 312, [6-[3-(trifluoromethyl)-1,2,4-triazol-1-yl]-2-azaspiro[3.3]heptan-2-yl]-[6-[[1-(3,3,3-trifluoropropyl)pyrazol-3-yl]methyl]-2,6-diazaspiro[3.3]heptan-2-yl]methanone], 183 nM. Under `CS(=O)(=O)c1cnn(CC2CC3(C2)CN(C(=O)N2CC4(CC(n5cnc(C6(O)CC6)n5)C4)C2)C3)c1` [Example 313, [6-[3-(1-hydroxycyclopropyl)-1,2,4-triazol-1-yl]-2-azaspiro[3.3]heptan-2-yl]-[6-[(4-mesylpyrazol-1-yl)methyl]-2-azaspiro[3.3]heptan-2-yl]methanone] stands 165 nM. On to `Cn1c(CN2CC3(C2)CN(C(=O)N2CC4(CC(n5cnc(C(F)(F)F)n5)C4)C2)C3)nnc1C(F)(F)F` [Example 314, [6-[[4-methyl-5-(trifluoromethyl)-1,2,4-triazol-3-yl]methyl]-2,6-diazaspiro[3.3]heptan-2-yl]-[6-[3-(trifluoromethyl)-1,2,4-triazol-1-yl]-2-azaspiro[3.3]heptan-2-yl]methanone], for which the IC50 amounted to 123 nM. Next, `O=C(N1CC2(CCC(Cc3nnc(C(F)(F)F)[nH]3)CC2)C1)N1CC2(CC(n3cnc(C(F)F)n3)C2)C1` [Example 315, [6-[3-(difluoromethyl)-1,2,4-triazol-1-yl]-2-azaspiro[3.3]heptan-2-yl]-[7-[[5-(trifluoromethyl)-4H-1,2,4-triazol-3-yl]methyl]-2-azaspiro[3.5]nonan-2-yl]methanone]: 113 nM; `O=C(N1CC2(CC(Cc3nc(CC(F)(F)F)n[nH]3)C2)C1)N1CC2(CC(n3cnc(C(F)F)n3)C2)C1` [Example 316, [6-[3-(difluoromethyl)-1,2,4-triazol-1-yl]-2-azaspiro[3.3]heptan-2-yl]-[6-[[3-(2,2,2-trifluoroethyl)-1H-1,2,4-triazol-5-yl]methyl]-2-azaspiro[3.3]heptan-2-yl]methanone]: 69.4 nM. On to `O=C(N1CC2(CCN(Cc3cc(C(F)(F)F)no3)CC2)C1)N1CC2(CC(n3cnc(C(F)(F)F)n3)C2)C1` [Example 317, [7-[[3-(trifluoromethyl)isoxazol-5-yl]methyl]-2,7-diazaspiro[3.5]nonan-2-yl]-[6-[3-(trifluoromethyl)-1,2,4-triazol-1-yl]-2-azaspiro[3.3]heptan-2-yl]methanone], for which the IC50 worked out at 68.1 nM.
